Measurements: US9359409B2, “Antimicrobial peptides, compositions comprising the same and uses thereof” (priority 2012, dated 2016)
Read-outs that look alike come from different tables or passages of the source. Ends that are not written are not given here.

How the values were obtained:
Escherichia coli = test system: Escherichia coli
Procedure: (§1) The 5 designed and synthesized peptides of the invention, plus omiganan (peptide of the state of the art) were evaluated for their antimicrobial capacity in microdilution assays for determining the minimum inhibitory concentration (MIC). A first panel of 8 representative strains was analyzed in these assays, encompassing Gram positive and Gram negative bacteria. […] The lowest MIC values indicate a higher antimicrobial potency.
(§2) Subsequently, an analysis of a panel of clinical isolates including strains with different resistance mechanisms against conventional antibiotics was carried out, all of which are of clinical relevance. […] In Table 3 the results for a panel of Gram negative bacteria are shown, and in Table 4 for a panel of […] bacteria. In these tables the detected gene/s responsible for the resistance against antibiotics for each strain, are included.
(§3) Antimicrobial activity was analyzed by means of the determination of the MIC (minimum inhibitory concentration) by the microdilution technique. The technique was carried out in the standard fashion according to (CLSI M07-A9 Vol. 32 No 2. January 2012). The peptide concentration range used was from 0.5 μg/mL to 512 μg/mL in two-fold serial dilutions. The used medium was MH Difco broth supplemented with cations, at a final concentration of Ca^++20-25 mg/L and Mg^++10-12.5 mg/L. The working inoculum used corresponds to a 1/100 dilution of a bacterial suspension equivalent to 0.5 in the Mc Farland scale.

human erythrocytes = assay: Erythrocyte hemolysis assay (cytotoxicity); type: cell-based; conditions: for therapeutic index (antimicrobial potency over the cytotoxicity percentage): in words
Procedure: Subsequently, the capacity of the peptides of the invention for lysing human erythrocytes was evaluated, as a measure of their cytotoxicity (Table 2). The assays were carried out according to the Examples and are expressed as a percentage of total lysis obtained with either water or the surfactant Tween 20. In this assays, the lower hemolysis percentage, the lower expected cytotoxic activity.
Evaluation of cytotoxic activity was performed by means of an erythrocyte hemolysis assay (according to Pure Appl. Chem., Vol. 79, No. 4, pp. 717-728, 2007). In brief, from a volume of heparinized human whole blood, 3 times that volume of PBS is added and centrifuged 10 minutes at 1500 rpm, repeating the washing two more times. 10% blood solutions in PBS were prepared with that pellet. Subsequently, each group was added the corresponding peptide at the indicated concentration and incubated at 37° C. for 30 minutes. […]

Staphylococcus aureus = assay: MIC by broth microdilution; type: cell-based
Procedure: as §1, §2, §3

Pseudomonas aeruginosa = assay: MIC by broth microdilution; type: cell-based
Procedure: as §1, §2, §3

S. saprophyticus = test system: S. saprophyticus
Procedure: as §2, §3

A. baumanii = test system: A. baumanii
Procedure: as §2, §3

E. raffinosus = test system: E. raffinosus
Procedure: as §2, §3

S. haemolyticus = test system: S. haemolyticus
Procedure: as §2, §3

E. gallinarum = test system: E. gallinarum
Procedure: as §2, §3

S. warnerii = type: cell-based
Procedure: (§4) In vitro sensitivity assay of aerobically growing bacteria, using the disc diffusion method was performed according to the standards in the M2 document of the CLSI (Clinical and Laboratory Standards Institute: Performance Standards for Antimicrobial Disk Susceptibility Tests.) using the non-amidated peptides
(§5) In brief, intermediate solutions (10×) of the antimicrobial non-amidated peptides were prepared by serial dilutions 1:2, 1:4 and 1:8 by two-fold dilutions. Then, one part of the solution of the antimicrobial peptide 10× was added to nine parts of melted bacteriological agar. The antibiotic solution was added for each dilution, in the melted agar and cooled to 45-50° C. in a water bath. Then, the agar-antibiotic mixture was placed in a Petri dish until a 3-4 mm depth was reached. The inoculum is prepared with a turbidity of 0.5 in the McFarland scale (approximately 1-2 10^8 CFU/ml). The final inoculum required for the agar dilution test is 10^4 colony forming units (CFU) per “spot” having 5-8 mm in diameter. The inoculated plates must be incubated upside down at 35° C. for a period of 16-20 hs. MIC was recorded as the value of the lower dilution completely inhibiting bacterial development, without considering the development of a single colony or a slight film caused by the inoculum deposit. The final point in these cases will correspond to the concentration at which there is more than 80% reduction in growth as compared with the control.

P. aeruginosa = type: cell-based
Procedure: as §4, §5

E. coli = type: cell-based
Procedure: as §4, §5

S. cohnii = type: cell-based
Procedure: as §4, §5

K. pneumoniae = type: cell-based
Procedure: as §4, §5

S. aureus = type: cell-based
Procedure: as §4, §5

Klebsiella pneumoniae = test system: Klebsiella pneumoniae
Procedure: as §1, §2, §3

Staphylococcus cohnii = test system: Staphylococcus cohnii
Procedure: as §1, §2, §3

Staphylococcus warneri = test system: Staphylococcus warneri
Procedure: as §1, §2, §3

E. faecalis = test system: E. faecalis
Procedure: as §2, §3

[1] = E. coli ABC11, resistance gene ctx-m-2
[2] = E. coli Cos15, resistance gene per + tem
[3] = E. coli LCA1, resistance gene ctx-m-2 + tem-1
[4] = E. coli M5306, resistance gene ctx-m-2 + tem-1 + per-2
[5] = E. coli M7859, resistance gene cit
[6] = E. coli NEU23, resistance gene oxa-GIII + tem
[7] = S. aureus 28, resistance gene ermA
[8] = S. aureus 33, resistance gene msrA
[9] = S. aureus 204, resistance gene ermA
[10] = S. aureus 239, resistance gene ermC
[11] = S. aureus M2832, resistance gene mecA
[12] = S. aureus M4046, resistance gene mecA
[13] = S. aureus M6276, resistance gene ermA + lnuA
[14] = S. aureus M6784, resistance gene mecA
[15] = P. aeruginosa M7525, resistance gene spm
[16] = P. aeruginosa M7712, resistance gene spm
[17] = P. aeruginosa M7723, resistance gene kpc
[18] = P. aeruginosa M7728, resistance gene imp
[19] = P. aeruginosa M7907, resistance gene per
[20] = A. baumanii FAV-1, resistance gene per + oxa-51 + oxa-58
[21] = A. baumanii M5179, resistance gene oxa-51
[22] = A. baumanii M5277, resistance gene per
[23] = A. baumanii M5282, resistance gene oxa-51
[24] = A. baumanii M5949, resistance gene oxa-23 + oxa-GVI
[25] = A. baumanii M7489, resistance gene oxa-51 + tem
[26] = A. baumanii M7978, resistance gene imp
[27] = A. baumanii M9665, resistance gene oxa-51
[28] = A. baumanii M13523, resistance gene oxa-51
[29] = E. gallinarum M2685, resistance gene vanC1 + vanA
[30] = E. gallinarum M2723, resistance gene vanC1 + vanA
[31] = E. coli M9209, resistance gene kpc

RIVQRIKKWLLKWKKLGY-NH2 [peptide 5, RIVQRIKKWLLKWKKLGY]
16 mg/L: MIC (Escherichia coli; [5]) | MIC (A. baumanii; [20]) | MIC (A. baumanii; [24]) | MIC (A. baumanii; [25]) | MIC (E. gallinarum; [29]) | MIC (E. gallinarum; [30])
8 mg/L: MIC (S. saprophyticus) | MIC (A. baumanii; [22]) | MIC (A. baumanii; [23]) | MIC (A. baumanii; [26]) | MIC (E. raffinosus) | MIC (S. haemolyticus) | MIC in agar dilution (S. warnerii) | MIC in agar dilution (S. cohnii)
64 mg/L: MIC (Escherichia coli; [2]) | MIC (Escherichia coli; [3]) | MIC (Escherichia coli; [4]) | MIC (Staphylococcus aureus; [7]) | MIC (Staphylococcus aureus; [8]) | MIC (Staphylococcus aureus; [10]) | MIC (Staphylococcus aureus; [11]) | MIC (Staphylococcus aureus; [13]) | MIC (Pseudomonas aeruginosa; [15]) | MIC (Pseudomonas aeruginosa; [16]) | MIC (Pseudomonas aeruginosa; [18]) | MIC (Pseudomonas aeruginosa; [19]) | MIC in agar dilution (E. coli)
highest therapeutic index values: therapeutic index (antimicrobial potency over the cytotoxicity percentage) (human erythrocytes)
32 mg/L: MIC (Escherichia coli; [1]) | MIC (Escherichia coli; [6]) | MIC (Staphylococcus aureus; [9]) | MIC (Staphylococcus aureus; S. aureus ATCC29213, WT) | MIC (Staphylococcus aureus; [12]) | MIC (Staphylococcus aureus; [14]) | MIC (Pseudomonas aeruginosa; [17]) | MIC (A. baumanii; [21]) | MIC (A. baumanii; [27])
>128 mg/L: MIC in agar dilution (P. aeruginosa) | MIC in agar dilution (K. pneumoniae) | MIC in agar dilution (S. aureus)
4 mg/L: MIC (A. baumanii; [28])

FGKEKKAWWRRRKWLK-NH2 [peptide 3, FGKEKKAWWRRRKWLK]
128 mg/L: MIC (Klebsiella pneumoniae) | MIC (Pseudomonas aeruginosa)
>128 mg/L: MIC in agar dilution (P. aeruginosa) | MIC in agar dilution (E. coli) | MIC in agar dilution (K. pneumoniae) | MIC in agar dilution (S. aureus)
32 mg/L: MIC in agar dilution (S. warnerii) | MIC in agar dilution (S. cohnii)
8 mg/L: MIC (Staphylococcus warneri)
4 mg/L: MIC (Staphylococcus cohnii)
64 mg/L: MIC (Escherichia coli)

WPKWWKWKRRWGRKKAKKRRG-NH2 [peptide 1]
4%: Hemolysis % (1% Tween20) (human erythrocytes; peptide 128 ug/ml, percentage of total lysis obtained with 1% Tween20)
128 mg/L: MIC (Escherichia coli; [1]) | MIC (Escherichia coli; [2]) | MIC (Escherichia coli; [3]) | MIC (Escherichia coli; [4]) | MIC (Escherichia coli; [5]) | MIC (Escherichia coli; [31]) | MIC (Escherichia coli; [6]) | MIC (Pseudomonas aeruginosa; P. aeruginosa M5109, resistance gene vim) | MIC (Pseudomonas aeruginosa; P. aeruginosa M5470, resistance gene ND) | MIC (Pseudomonas aeruginosa; [18]) | MIC (Pseudomonas aeruginosa; [19]) | MIC (E. faecalis; E. faecalis M4449, resistance gene vanA) | MIC (E. faecalis; E. faecalis M4992, resistance gene vanA) | MIC (E. faecalis; E. faecalis M6383, resistance gene vanA) | MIC (E. faecalis; E. faecalis M6534, resistance gene vanB)
256 mg/L: MIC (E. faecalis; E. faecalis ATCC 51299, resistance gene vanB) | MIC (E. faecalis; E. faecalis M4899, resistance gene vanB)
0.067: OD 540 nm (human erythrocytes; peptide 128 ug/ml, supernatant of human erythrocytes, 37° C., 30 minutes)
3.4%: Hemolysis % (water) (human erythrocytes; peptide 128 ug/ml, percentage of total lysis obtained with water)
16 mg/L: MIC (Staphylococcus aureus; [13]) | MIC (S. saprophyticus) | MIC (S. haemolyticus) | MIC (E. gallinarum; [29]) | MIC in agar dilution (S. warnerii) | MIC in agar dilution (S. cohnii)
64 mg/L: MIC (Staphylococcus aureus; [9]) | MIC (Pseudomonas aeruginosa; [15]) | MIC (Pseudomonas aeruginosa; [16]) | MIC (Pseudomonas aeruginosa; [17]) | MIC (A. baumanii; [20]) | MIC (A. baumanii; [21]) | MIC (A. baumanii; [22]) | MIC (A. baumanii; [23]) | MIC (A. baumanii; [25]) | MIC (A. baumanii; [26]) | MIC (A. baumanii; [28]) | MIC (E. faecalis)
highest therapeutic index values: therapeutic index (antimicrobial potency over the cytotoxicity percentage) (human erythrocytes)
32 mg/L: MIC (Staphylococcus aureus; [7]) | MIC (Staphylococcus aureus; [8]) | MIC (Staphylococcus aureus; [10]) | MIC (Staphylococcus aureus; S. aureus ATCC29213, WT) | MIC (Staphylococcus aureus; [11]) | MIC (Staphylococcus aureus; [12]) | MIC (Staphylococcus aureus; [14]) | MIC (E. gallinarum; [30])
>128 mg/L: MIC in agar dilution (P. aeruginosa) | MIC in agar dilution (P. aeruginosa; non-amidated peptides, P. aeruginosa M13513, KPC) | MIC in agar dilution (E. coli; non-amidated peptides, E. coli ATCC 25922, WT) | MIC in agar dilution (K. pneumoniae; non-amidated peptides, K. pneumoniae M13540, KPC) | MIC in agar dilution (S. aureus; non-amidated peptides, S. aureus ATCC29213, MSSA) | MIC in agar dilution (S. aureus; non-amidated peptides, S. aureus M6794, MRSA)

GLLKKWLKKWKEFKRIVGY-NH2 [peptide 2, GLLKKWLKKWKEFKRIVGY]
high hemolysis values: hemolysis values (in words) (human erythrocytes)
4 mg/L: MIC (Escherichia coli; [4]) | MIC (A. baumanii; [27])
128 mg/L: MIC (Staphylococcus aureus; [8]) | MIC (Staphylococcus aureus; [11]) | MIC (Staphylococcus aureus; [12]) | MIC in agar dilution (E. coli)
16 mg/L: MIC (A. baumanii; [20]) | MIC (A. baumanii; [26]) | MIC (E. gallinarum; [29]) | MIC in agar dilution (S. cohnii)
>128 mg/L: MIC in agar dilution (P. aeruginosa) | MIC in agar dilution (S. aureus)
32 mg/L: MIC (Escherichia coli; [1]) | MIC (Escherichia coli; [5]) | MIC (Escherichia coli; [6]) | MIC (Staphylococcus aureus; [14]) | MIC (A. baumanii; [21]) | MIC (A. baumanii; [22]) | MIC (A. baumanii; [24]) | MIC (A. baumanii; [28]) | MIC (E. gallinarum; [30])
64 mg/L: MIC (Escherichia coli; [2]) | MIC (Escherichia coli; [3]) | MIC (Escherichia coli; [31]) | MIC (Staphylococcus aureus; [7]) | MIC (Staphylococcus aureus; [9]) | MIC (Staphylococcus aureus; [10]) | MIC (Staphylococcus aureus; S. aureus ATCC29213, WT) | MIC (Pseudomonas aeruginosa; [15]) | MIC (Pseudomonas aeruginosa; [16]) | MIC (Pseudomonas aeruginosa; [17]) | MIC (Pseudomonas aeruginosa; [18]) | MIC (Pseudomonas aeruginosa; [19]) | MIC in agar dilution (K. pneumoniae)
8 mg/L: MIC (A. baumanii; [23]) | MIC (A. baumanii; [25]) | MIC (E. raffinosus) | MIC (S. haemolyticus) | MIC in agar dilution (S. warnerii)
